# Where two headings read alike, the source gives them in different places.
# Columns and labels:
# [1] = Pharmacokinetic study of the chylomicron and micelle compositions in rats (gavage and i.v.); assay type: in vivo, male Sprague-Dawley rats; conditions: rat
# Experimental: The pharmacokinetic properties of the pharmaceutical composition prepared in Example 1 and the pharmaceutical composition prepared in Example 2 were assessed in male Sprague-Dawley rats.
# A total of 24 rats (all rats with body weight of about 280 g each) were divided into two groups with 12 each, one received oral administration (gavage) while the other received intravenous (i.v.) injection.
# The pharmaceutical composition in Example 1 and the pharmaceutical composition in Example 2 were administered via gavage and intravenous (IV) injection. An equivalent of 1.43 mg/kg of solanorubin was given by IV route (one-tenth of oral dosage) and an equivalent of 14.3 mg/kg of solanorubin was administered orally.
# Blood samples were collected via the tail vein of the rats at the following time intervals: 2 minutes, 5 minutes, 10 minutes, 30 minutes, 1 hour, 2 hours, 4 hours, 8 hours, 24 hours, 48 hours and 72 hours after the composition was administered.
# Pharmacokinetic study was carried out using the WinNonlin software system (Pharsight Co, Mountain View, Calif., USA) by non-compartmental model. The area under the drug concentration-time curve (AUC) was used to determine total amount of all-trans-solanorubin, cis-solanorubin, octohydrogenosolanorubin and hexahydrogenosolanorubin to reach the systematic circulation. Some other kinetic parameters such as Cmax, Tmax, and t1/2 were measured as well. The absolute bioavailability of trans-solanorubin, cis-solanorubin, octohydrogenosolanorubin and hexahydrogenosolanorubin was calculated using the following formula: […]
# All the data were subjected to analysis of variance and Duncan's multiple range test using Statistical Analysis Software (SAS)^16 for statistical significance at P<0.05.
# [2] = Stability at pH 2.0, 3.5, 6.0, 6.8 and 7.4; assay type: physicochemical; conditions: pH 2.0, 3.5, 6.0, 6.8 and 7.4 for 1, 2, 4, 6, 12 or 24 h; for Change in concentration in micelles at different pH: micelle
# Experimental: (§1) Likewise, when chylomicron was stored at pH 2.0, 3.5, 6.0, 6.8 and 7.4 for 1, 2, 4, 6, 12 or 24 h, the stability of solanorubin, octohydrogenosolanorubin and hexahydrogenosolanorubin was maintained. The encapsulation efficiency of solanorubin in chylomicron was assessed to be approximately 80%.
# (§2) The average size of the micelle, based on DLS and TEM analyses, was approximately 7.5 nm, with spherical shape and transparent appearance. […] Also, the mean values of solanorubin, octohydrogenosolanorubin and hexahydrogenosolanorubin were ranged from 0.34-0.38 mg/mL, 0.03-0.04 mg/mL and 0.03-0.04 mg/mL, respectively, during storage or heating under the same condition. […] The encapsulation efficiency of solanorubin in micelle was determined to be about 78%.
# [3] = rat, Faisal et al. J. Pharm. Pharmacol. 2010, cited from earlier work
# [4] = Stability during storage at 4° C. or 25° C. for 3 months or heating at 100° C. for 4 h; assay type: physicochemical; conditions: 4° C. or 25° C. for 3 months or 100° C. for 4 h
# Experimental: as §1, §2
# Encapsulation efficiency = assay type: physicochemical
# Experimental: as §1, §2
# [5] = cited from earlier work
# [6] = Pre-experiments on saturation of absorption (dose selection); assay type: in vivo; conditions: several pre-experiments
# [7] = male, Sprague-Dawley, in vivo, po, 14.3 mg/kg
smiles,measurement,setting,value
"CC(C)=CCCC(C)=CCCC(C)=CC=CC(C)=CC=CC=C(C)CCC=C(C)CCC=C(C)CCC=C(C)C [Hexahydrogenosolanorubin, hexahydrogenosolanorubin]",AUC higher for IV administered micelle composition compared to IV administered chylomicron composition (difference),"[1]; in vivo, iv, 1.43 mg/kg",544 µg·min/mL
same,"Cmax of IV administered micelle composition, fold higher than IV administered chylomicron composition","[1]; in vivo, iv, 1.43 mg/kg",9.6 fold
same,Tmax,"[1]; in vivo, iv, 1.43 mg/kg",0.033 h
same,Change in concentration in micelles at different pH,[2],only a minor change
"CC(C)=CCC/C(C)=C/CC/C(C)=C/CC/C(C)=C/C=C/C=C(\C)CC/C=C(\C)CC/C=C(\C)CCC=C(C)C [Octohydrogenosolanorubin, octohydrogenosolanorubin]",AUC higher for IV administered micelle composition compared to IV administered chylomicron composition (difference),"[1]; in vivo, iv, 1.43 mg/kg",311 µg·min/mL
same,"Cmax of IV administered micelle composition, fold higher than IV administered chylomicron composition","[1]; in vivo, iv, 1.43 mg/kg",5.9 fold
same,Cmax,"[1]; in vivo, po, 14.3 mg/kg",60 ng/mL
same,Change in concentration in micelles at different pH,[2],only a minor change
"CC(C)=CCC/C(C)=C/C=C/C(C)=C/C=C/C(C)=C/C=C/C=C(C)/C=C/C=C(C)/C=C/C=C(\C)CCC=C(C)C [Solanorubin, solanorubin]",Bioavailability of solanorubin not encapsulated / from natural sources,[3],about 1.85%
same,Bioavailability of solanorubin not encapsulated / from natural sources,[3]; listed as non-encapsulated solanorubin,1.85%
same,Stability of the carotenoid in chylomicron (change in concentration),[4]; chylomicron,high stability
same,Mean concentration during storage or heating,[4]; micelle,340000 to 380000 ng/mL
same,"Cmax of IV administered micelle composition, fold higher than IV administered chylomicron composition",[1]; IV 1.43 mg/kg BW,7.8 fold
same,AUC,"[1]; male, Sprague-Dawley, in vivo, IV 1.43 mg/kg BW, read-out: AUC higher for IV administered micelle composition compared to IV administered chylomicron composition (difference) (converted)",3380 ng·h/mL
same,bioavailability,"[1]; male, Sprague-Dawley, in vivo, 14.3 mg/kg",9.5%
same,bioavailability,"[1]; male, Sprague-Dawley, in vivo, 14.3 mg/kg, Bioavailability",6.8%
same,AUC,"[1]; male, Sprague-Dawley, in vivo, iv, 1.43 mg/kg",12200 ± 1400 ng·h/mL
same,AUC,"[1]; male, Sprague-Dawley, in vivo, iv, 1.43 mg/kg, AUC",8830 ng·h/mL
same,Tmax,"[1]; male, Sprague-Dawley, in vivo, iv, 1.43 mg/kg, Tmax",0.0333 h
same,AUC,[1]; [7],8380 ng·h/mL
same,Cmax,[1]; [7],180 ng/mL
same,Tmax,[1]; [7],4 h
same,t1/2,[1]; [7],33.63 ± 5.43 h
same,AUC,"[1]; male, Sprague-Dawley, in vivo, po, 14.3 mg/kg, AUC",8270 ng·h/mL
same,Cmax,"[1]; male, Sprague-Dawley, in vivo, po, 14.3 mg/kg, Cmax",270 ng/mL
same,Tmax,"[1]; male, Sprague-Dawley, in vivo, po, 14.3 mg/kg, Tmax",2 h
same,half-life,"[1]; male, Sprague-Dawley, in vivo, po, 14.3 mg/kg, t1/2",28.9 ± 3.3 h
same,Encapsulation efficiency,Encapsulation efficiency; solanorubin in chylomicron,approximately 80%
same,Encapsulation efficiency,Encapsulation efficiency; solanorubin in micelle,about 78%
same,Stability of the carotenoid in chylomicron at different pH,[2]; chylomicron,maintained
same,Change in concentration in micelles at different pH,[2],only a minor change
same,Solubility in water,[5],insoluble in water
same,Solubility in water,[5]; listed as solanorubin,practically insoluble in water
CC(C)=CCC/C(C)=C/C=C/C(C)=C/C=C/C(C)=C/C=C/C=C(C)/C=C/C=C(C)/C=C/C=C(\C)CCC=C(C)C [lycopene],Dose above which saturation of absorption may occur,[6],higher than 14.3 mg/kg BW

# From patent US9539219B2, “Pharmaceutical compositions of carotenoid chylomicrons” (HEALTH-EVER BIOTECH CO. LTD, priority 2013, dated 2017)
